In paper PMC3929239 (Bioorganic & medicinal chemistry letters, 2011):

Assays:
[1] = target: CYP2D6 (Homo sapiens, UniProt P10635); assay: Single point CYP450 inhibition test; type: in vitro ADME; conditions: for inhibition at 10 µM: human, CYP2D6 % inhibition
[2] = target: T1, P110δ/P85α (Homo sapiens, UniProt O00329); assay: Ambit KINOMEscan; type: binding
T1 sequence (O00329 1-1044): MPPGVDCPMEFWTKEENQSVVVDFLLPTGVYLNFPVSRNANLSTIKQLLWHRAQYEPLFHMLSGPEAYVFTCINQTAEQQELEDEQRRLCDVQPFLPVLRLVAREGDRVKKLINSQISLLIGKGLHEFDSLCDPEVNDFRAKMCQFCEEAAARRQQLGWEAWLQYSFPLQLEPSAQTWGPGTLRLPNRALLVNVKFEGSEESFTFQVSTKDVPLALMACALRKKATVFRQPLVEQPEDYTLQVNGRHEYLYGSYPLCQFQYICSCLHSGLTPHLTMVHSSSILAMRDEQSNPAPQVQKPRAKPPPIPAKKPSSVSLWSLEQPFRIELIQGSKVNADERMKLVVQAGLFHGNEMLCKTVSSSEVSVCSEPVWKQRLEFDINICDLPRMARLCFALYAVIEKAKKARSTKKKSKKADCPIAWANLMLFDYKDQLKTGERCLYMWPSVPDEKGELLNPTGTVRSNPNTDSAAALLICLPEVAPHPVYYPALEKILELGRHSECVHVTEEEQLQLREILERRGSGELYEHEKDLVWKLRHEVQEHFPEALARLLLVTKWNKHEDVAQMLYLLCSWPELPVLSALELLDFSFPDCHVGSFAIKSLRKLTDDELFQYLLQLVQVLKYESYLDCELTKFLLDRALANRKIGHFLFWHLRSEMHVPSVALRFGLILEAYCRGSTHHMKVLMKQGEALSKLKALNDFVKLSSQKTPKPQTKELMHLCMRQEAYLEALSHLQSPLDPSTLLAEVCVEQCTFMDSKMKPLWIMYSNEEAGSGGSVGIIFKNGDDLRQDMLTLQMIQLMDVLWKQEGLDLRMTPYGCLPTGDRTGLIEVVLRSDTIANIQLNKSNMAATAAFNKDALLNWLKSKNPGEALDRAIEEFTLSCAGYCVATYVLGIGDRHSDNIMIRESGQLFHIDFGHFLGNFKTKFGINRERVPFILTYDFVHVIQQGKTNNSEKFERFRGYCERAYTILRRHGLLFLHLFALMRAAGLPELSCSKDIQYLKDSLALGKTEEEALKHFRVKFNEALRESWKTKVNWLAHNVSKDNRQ

[3] = target: P110γ (Homo sapiens, UniProt P48736); assay: Ambit KINOMEscan; type: binding
Sequence of P110γ (P48736 whole entry): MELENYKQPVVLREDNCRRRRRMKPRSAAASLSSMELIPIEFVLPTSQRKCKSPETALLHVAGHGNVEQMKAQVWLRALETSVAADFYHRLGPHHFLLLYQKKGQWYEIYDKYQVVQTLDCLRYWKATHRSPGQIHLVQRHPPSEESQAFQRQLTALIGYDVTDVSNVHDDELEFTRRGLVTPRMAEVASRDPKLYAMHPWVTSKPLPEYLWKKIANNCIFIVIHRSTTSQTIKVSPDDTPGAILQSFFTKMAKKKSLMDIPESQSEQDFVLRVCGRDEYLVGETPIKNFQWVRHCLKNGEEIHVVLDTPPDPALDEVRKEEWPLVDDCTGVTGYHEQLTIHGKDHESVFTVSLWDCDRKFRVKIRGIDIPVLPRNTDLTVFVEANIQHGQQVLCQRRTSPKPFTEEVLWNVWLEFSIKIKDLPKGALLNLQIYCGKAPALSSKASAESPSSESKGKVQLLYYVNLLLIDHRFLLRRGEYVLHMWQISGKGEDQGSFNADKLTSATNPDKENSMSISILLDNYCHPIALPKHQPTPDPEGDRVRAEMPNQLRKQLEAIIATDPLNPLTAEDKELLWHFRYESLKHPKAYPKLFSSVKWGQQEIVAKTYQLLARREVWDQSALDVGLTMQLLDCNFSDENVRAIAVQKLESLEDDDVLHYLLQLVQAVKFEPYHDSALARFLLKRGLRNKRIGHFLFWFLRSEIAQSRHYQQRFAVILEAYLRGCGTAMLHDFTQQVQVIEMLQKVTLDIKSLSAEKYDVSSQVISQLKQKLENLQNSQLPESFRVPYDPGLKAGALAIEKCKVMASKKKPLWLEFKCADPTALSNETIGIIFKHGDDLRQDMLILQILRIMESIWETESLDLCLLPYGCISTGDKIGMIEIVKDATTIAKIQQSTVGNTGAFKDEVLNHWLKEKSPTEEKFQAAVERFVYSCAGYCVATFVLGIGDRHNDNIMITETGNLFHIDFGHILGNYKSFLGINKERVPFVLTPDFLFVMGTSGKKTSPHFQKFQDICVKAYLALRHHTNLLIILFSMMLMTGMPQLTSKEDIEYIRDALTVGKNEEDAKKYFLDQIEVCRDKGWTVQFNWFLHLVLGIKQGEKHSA

[4] = target: PI3K-C2β (Homo sapiens, UniProt O00750); assay: Ambit KINOMEscan; type: binding
Sequence of PI3K-C2β (O00750 whole entry): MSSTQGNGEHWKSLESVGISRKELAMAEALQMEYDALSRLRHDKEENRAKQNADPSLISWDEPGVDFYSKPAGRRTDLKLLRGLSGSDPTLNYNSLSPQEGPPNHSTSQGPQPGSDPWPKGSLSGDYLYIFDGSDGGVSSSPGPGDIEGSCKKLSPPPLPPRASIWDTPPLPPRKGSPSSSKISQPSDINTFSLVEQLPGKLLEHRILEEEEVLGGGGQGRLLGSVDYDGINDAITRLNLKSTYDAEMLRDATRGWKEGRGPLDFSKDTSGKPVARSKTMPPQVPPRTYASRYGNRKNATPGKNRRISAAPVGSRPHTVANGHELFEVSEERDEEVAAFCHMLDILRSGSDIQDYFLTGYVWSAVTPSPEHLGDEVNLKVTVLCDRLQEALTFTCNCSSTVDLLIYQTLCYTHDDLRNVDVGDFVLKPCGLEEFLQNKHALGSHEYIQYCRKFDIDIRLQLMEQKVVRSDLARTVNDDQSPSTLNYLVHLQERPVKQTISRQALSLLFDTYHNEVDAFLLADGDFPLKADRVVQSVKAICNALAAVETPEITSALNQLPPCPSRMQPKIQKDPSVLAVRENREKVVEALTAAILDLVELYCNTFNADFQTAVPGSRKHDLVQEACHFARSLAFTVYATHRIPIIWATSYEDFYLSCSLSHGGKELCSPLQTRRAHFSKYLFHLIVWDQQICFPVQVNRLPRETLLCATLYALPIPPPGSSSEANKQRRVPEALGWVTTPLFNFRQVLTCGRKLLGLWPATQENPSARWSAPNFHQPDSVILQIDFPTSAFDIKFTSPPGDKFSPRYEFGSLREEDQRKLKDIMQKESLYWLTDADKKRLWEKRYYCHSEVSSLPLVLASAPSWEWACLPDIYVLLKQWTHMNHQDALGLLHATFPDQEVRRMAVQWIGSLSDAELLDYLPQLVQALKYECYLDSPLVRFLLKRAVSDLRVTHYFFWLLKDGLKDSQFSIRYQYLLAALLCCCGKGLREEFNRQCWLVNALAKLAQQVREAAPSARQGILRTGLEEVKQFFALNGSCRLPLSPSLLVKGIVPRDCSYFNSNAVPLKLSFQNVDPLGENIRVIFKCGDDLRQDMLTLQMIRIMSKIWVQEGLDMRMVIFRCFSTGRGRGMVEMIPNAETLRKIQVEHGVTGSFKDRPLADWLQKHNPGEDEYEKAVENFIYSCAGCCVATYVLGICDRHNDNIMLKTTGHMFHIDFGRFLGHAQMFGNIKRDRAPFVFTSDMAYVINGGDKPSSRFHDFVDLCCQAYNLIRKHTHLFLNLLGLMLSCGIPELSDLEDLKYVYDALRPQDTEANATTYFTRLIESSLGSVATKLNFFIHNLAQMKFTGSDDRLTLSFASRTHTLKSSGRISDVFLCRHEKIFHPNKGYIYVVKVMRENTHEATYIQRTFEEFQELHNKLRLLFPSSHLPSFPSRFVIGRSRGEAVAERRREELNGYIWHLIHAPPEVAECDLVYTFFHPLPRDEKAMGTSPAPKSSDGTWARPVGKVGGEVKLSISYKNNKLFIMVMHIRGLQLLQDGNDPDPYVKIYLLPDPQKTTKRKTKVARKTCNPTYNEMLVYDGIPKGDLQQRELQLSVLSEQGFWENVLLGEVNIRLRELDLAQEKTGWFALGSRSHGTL

[5] = target: P110α/P85α (Homo sapiens, UniProt P42336); assay: Ambit KINOMEscan; type: binding
Sequence of P110α/P85α (P42336 whole entry): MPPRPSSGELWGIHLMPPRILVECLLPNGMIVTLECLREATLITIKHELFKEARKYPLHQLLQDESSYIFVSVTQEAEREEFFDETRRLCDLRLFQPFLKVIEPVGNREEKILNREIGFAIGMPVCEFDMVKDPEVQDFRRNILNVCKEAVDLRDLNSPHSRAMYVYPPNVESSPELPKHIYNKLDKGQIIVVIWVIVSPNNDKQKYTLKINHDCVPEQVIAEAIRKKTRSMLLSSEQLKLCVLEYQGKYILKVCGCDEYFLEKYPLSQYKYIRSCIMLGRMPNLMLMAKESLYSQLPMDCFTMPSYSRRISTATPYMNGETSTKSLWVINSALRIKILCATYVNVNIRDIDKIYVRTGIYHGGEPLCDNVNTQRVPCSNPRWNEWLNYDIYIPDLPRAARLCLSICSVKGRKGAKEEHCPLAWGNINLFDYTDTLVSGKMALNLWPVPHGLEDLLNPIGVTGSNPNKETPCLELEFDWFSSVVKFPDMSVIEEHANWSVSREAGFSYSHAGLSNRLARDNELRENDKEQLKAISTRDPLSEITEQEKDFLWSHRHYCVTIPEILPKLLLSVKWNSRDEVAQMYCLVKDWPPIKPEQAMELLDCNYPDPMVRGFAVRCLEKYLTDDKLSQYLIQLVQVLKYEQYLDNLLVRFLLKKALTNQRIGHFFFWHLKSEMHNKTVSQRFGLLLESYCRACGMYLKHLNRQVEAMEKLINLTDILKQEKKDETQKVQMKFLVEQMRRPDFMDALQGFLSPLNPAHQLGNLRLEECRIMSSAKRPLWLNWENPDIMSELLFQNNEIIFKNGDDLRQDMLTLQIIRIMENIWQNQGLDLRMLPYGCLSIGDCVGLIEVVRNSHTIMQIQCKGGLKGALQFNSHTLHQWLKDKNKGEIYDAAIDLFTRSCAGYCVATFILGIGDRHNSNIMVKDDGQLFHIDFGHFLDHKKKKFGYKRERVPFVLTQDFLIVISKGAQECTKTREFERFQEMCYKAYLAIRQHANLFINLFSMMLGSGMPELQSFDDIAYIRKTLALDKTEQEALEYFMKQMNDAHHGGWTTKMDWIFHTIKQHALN

[6] = system: downstream targets of mTOR, S6K, and Akt; assay: In vivo pharmacodynamic study; conditions: liver and lung tissues, after 6h, 20 mg/kg
[7] = target: mTOR (Homo sapiens, UniProt P42345); assay: Ambit KINOMEscan; type: binding
[8] = target: CYP3A4 (Homo sapiens, UniProt P08684); assay: Single point CYP450 inhibition test; type: in vitro ADME
Sequence of CYP3A4 (P08684 whole entry): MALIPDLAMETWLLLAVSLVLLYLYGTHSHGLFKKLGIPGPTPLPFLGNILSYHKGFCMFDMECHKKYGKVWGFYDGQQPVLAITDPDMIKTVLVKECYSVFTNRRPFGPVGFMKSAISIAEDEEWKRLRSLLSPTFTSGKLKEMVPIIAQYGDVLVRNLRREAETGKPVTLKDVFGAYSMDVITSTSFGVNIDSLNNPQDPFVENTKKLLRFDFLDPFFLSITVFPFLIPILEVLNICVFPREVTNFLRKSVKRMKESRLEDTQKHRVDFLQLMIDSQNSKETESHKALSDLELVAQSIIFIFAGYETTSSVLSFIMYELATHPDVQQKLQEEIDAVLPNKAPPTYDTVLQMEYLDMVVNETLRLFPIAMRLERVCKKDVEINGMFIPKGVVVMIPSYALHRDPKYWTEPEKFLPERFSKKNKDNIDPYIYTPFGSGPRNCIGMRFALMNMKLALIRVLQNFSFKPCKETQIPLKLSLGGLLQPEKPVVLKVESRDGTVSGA

[9] = system: U87-MG mouse xenograft; conditions: cited from earlier work
[10] = system: 450 kinases; conditions: 450 kinases profiled by KINOMEscan; cited from earlier work

Sequence of CYP2D6 (P10635 whole entry): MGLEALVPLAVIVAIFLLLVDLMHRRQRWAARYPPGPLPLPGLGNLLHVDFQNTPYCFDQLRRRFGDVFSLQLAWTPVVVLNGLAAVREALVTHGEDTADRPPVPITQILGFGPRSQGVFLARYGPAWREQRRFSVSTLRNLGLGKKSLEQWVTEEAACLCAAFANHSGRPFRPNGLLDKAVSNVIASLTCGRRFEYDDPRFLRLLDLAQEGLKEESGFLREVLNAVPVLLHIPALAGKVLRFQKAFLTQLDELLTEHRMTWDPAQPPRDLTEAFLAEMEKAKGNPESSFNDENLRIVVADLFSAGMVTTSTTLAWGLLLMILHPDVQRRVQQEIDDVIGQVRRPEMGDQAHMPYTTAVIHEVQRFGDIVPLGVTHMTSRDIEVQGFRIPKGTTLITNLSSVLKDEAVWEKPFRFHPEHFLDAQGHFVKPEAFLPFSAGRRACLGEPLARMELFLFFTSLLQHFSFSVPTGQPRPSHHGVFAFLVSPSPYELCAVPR

| inhibition at 10 µM [1] | Ambit score [2] | Ambit score [3] | CYP2D6 % inhibition ([1]; 10 µM) | Ambit score [4] | Ambit score [5] | Ambit score [7] | inhibition at 10 µM [8] | Structure (SMILES) | blocked phosphorylation of S6K (T389) [6] | blocked phosphorylation of pAkt (S473) [6] | anti-tumor activity [9] | protein kinase off-targets [10] |
| --- | --- | --- | --- | --- | --- | --- | --- | --- | --- | --- | --- | --- |
| 24% |  |  |  |  |  |  |  | Cc1cc(-n2c(=O)ccc3cnc4ccc(-c5cnc6ccccc6c5)cc4c32)ccc1-c1ccc(C(=O)NC2CCN(C)CC2)cc1 [Compound 19] |  |  |  |  |
| > 50% | 2% | 0.05% | 51% | 0.65% | 0.1% | 0% | > 60% | CN1CCC(NC(=O)c2ccc(-c3ccc(-n4c(=O)ccc5cnc6ccc(-c7cnc8ccccc8c7)cc6c54)cc3C(F)(F)F)cc2)CC1 [Compound 10] | 80–90% | 80–90% |  |  |
|  |  |  |  |  |  |  |  | CCC(=O)N1CCN(c2ccc(-n3c(=O)ccc4cnc5ccc(-c6cnc7ccccc7c6)cc5c43)cc2C(F)(F)F)CC1 [Torin1] |  |  | exhibited anti-tumor activity | no other significant protein kinase off-targets |
